Laboratory results as given in patent US20140107568A1, “METHOD OF DETERMINING AN INJECTED DOSE BASED ON A KNOWN ORAL DOSE” (ANTARES PHARMA, INC., priority 2012, published 2014).

Source text: An algorithm was developed to correlate a known oral dose of methotrexate to a jet injector dose. Table 1 illustrates the calculated correlation between oral doses and needle-assisted jet injector doses of methotrexate. The second column illustrates the precise subcutaneous dose calculated based on the algorithm, described in detail below. The third column represents the administrable dose, based on commercially available doses, closest in value to the precise calculated dose.
Based on the data set forth in table 1, a line equation of y=mx+b was developed to correlate an oral dose of methotrexate to an equivalent dose for use with a jet injector. In the present equation, illustrated by the graph shown in FIG. 1, the slope, m, was determined to be 0.6101 and a y-intercept, b, to be 2.9274. The correlation coefficient of the line, R^2, is 0.9594.

With `CN(Cc1cnc2nc(N)nc(N)c2n1)c1ccc(C(=O)N[C@@H](CCC(=O)O)C(=O)O)cc1` [methotrexate] as the compound, how does the “slope, m, of line equation y=mx+b correlating oral dose to equivalent jet injector dose” value read?
Its value is 0.6101.

What about the “y-intercept, b, of line equation y=mx+b correlating oral dose to equivalent jet injector dose” value of the same compound?
Its value is 2.9274.
